Among the data in US11919887B2, “Substituted tetrahydrofurans as modulators of sodium channels” (Vertex Pharmaceuticals Incorporated, priority 2019, dated 2024) are IC50 values, retold here.

Structures are written as SMILES. pIC50: −log10 of the molar value. Where two headings read alike, the source gives them in different places. Some results are limits rather than exact numbers.

For this test, the target named is human Nav 1.8 (Homo sapiens, UniProt Q9Y5Y9). The test is described as follows: E-VIPR assay detecting and measuring Nav inhibition (HEK cells expressing truncated human Nav 1.8). It counts as cell-based. As to conditions: read-out: IC50. An excerpt:
Sodium ion channels are voltage-dependent proteins that can be activated by inducing membrane voltage changes by applying electric fields. The electrical stimulation instrument and methods of use, referred to as E-VIPR, are described in International Publication No. WO 2002/008748 A3 and C.-J. Huang et al. Characterization of voltage-gated sodium channel blockers by electrical stimulation and fluorescence detection of membrane potential, 24 Nature Biotech. 439-46 (2006), both of which are incorporated by reference in their entirety. The instrument comprises a microtiter plate handler, an optical system for exciting the coumarin dye while simultaneously recording the coumarin and oxonol emissions, a waveform generator, a current- or voltage-controlled amplifier, and parallel electrode pairs that are inserted into assay plate wells. Under integrated computer control, this instrument passes user-programmed electrical stimulus protocols to cells within the wells of the microtiter plate.
16-20 hours prior to running the assay on E-VIPR, HEK cells expressing a truncated form of human Nav 1.8 with full channel activity were seeded into microtiter 384-well plates, pre-coated with matrigel, at a density of 25,000 cells per well. 2.5-5% KIR2.1 Bacmam virus was added to the final cell suspension before seeding into cell plates. HEK cells were grown in Dulbecco's Modified Eagle's Medium (DMEM) supplemented with 10% FBS (Fetal Bovine Serum, qualified; Sigma #F4135), 1% NEAA (Non-Essential Amino Acids, Gibco #11140), 1% HEPES (Gibco #15630), 1% Pen-Strep (Penicillin-Streptomycin; Gibco #15140) and 5 μg/ml Blasticidin (Gibco #R210-01). Cells were expanded in vented cap cell culture flasks, with 90-95% humidity and 5% CO2.
Human Serum (HS, Millipore #S1P1-01KL, or Sigma SLBR5469V and SLBR5470V as a 50%/50% mixture, for 25% assay final concentration)
Bath1 Buffer: • Sodium Chloride 160 mM (9.35 g/L), Potassium Chloride, 4.5 mM (0.335 g/L), Glucose 10 mM (1.8 g/L), Magnesium Chloride (Anhydrous) 1 mM (0.095 g/L), Calcium Chloride 2 mM (0.222 g/L), HEPES 10 mM (2.38 g/L) in water.
Na/TMA Cl Bath1 Buffer: • Sodium Chloride 96 mM (5.61 g/L), Potassium Chloride 4.5 mM (0.335 g/L), Tetramethylammonium (TMA)-Cl 64 mM (7.01 g/L), Glucose 10 mM (1.8 g/L), Magnesium Chloride (Anhydrous) 1 mM (0.095 g/L), Calcium Chloride 2 mM (0.222 g/L) HEPES 10 mM (2.38 g/L) in water.
Hexyl Dye Solution (2× concentration): • Bath1 Buffer containing 0.5% β-cyclodextrin (made fresh prior to each use, Sigma #C4767), 8 μM CC2-DMPE and 2 μM DiSBAC6(3). The solution was made by adding 10% Pluronic F127 stock equal to combined volumes of CC2-DMPE and DiSBAC6(3). The order of preparation was first mix Pluronic and CC2-DMPE, then add DiSBAC6(3), then while vortexing add Bath1/β-Cyclodextrin.
Compound Loading Buffer (2×concentration): Na/TMA Cl Bath1 Buffer containing HS (omitted in experiments run in the absence of human serum (HS)) 50%, VABSC-1 1 mM, BSA 0.2 mg/ml (in Bath-1), KCl 9 mM, DMSO 0.75%.
Assay Protocol (7 Key Steps): • 1) To reach the final concentration in each well, 400 nL of each compound was pre-spotted (in neat DMSO) into polypropylene compound plates at 250×desired final concentration from an intermediate stock concentration of 0.075 mM, in an 11 point dose response, 3-fold dilution, resulting in a top dose of 300 nM final concentration in the cell plate. Vehicle control (neat DMSO), and positive control (an established Nav1.8 inhibitor, 25 μM final in assay in DMSO) were added manually to the outermost columns of each plate respectively. The compound plate was backfilled with 45 μL per well of Compound Loading Buffer resulting in a 250 fold dilution of compound following a 1:1 transfer of compound into the cell plate (see Step 6). Final DMSO concentration for all wells in the assay was 0.625% (0.75% DMSO was supplemented to the Compound Loading Buffer for a final DMSO concentration of 0.625%). […]

The mark [1] stands for this setting: in the Absence of Human Serum in the E-VIPR Assay.
[2] abbreviates: in the Presence of Human Serum in the E-VIPR Assay.

Sequence of human Nav 1.8 (Q9Y5Y9 whole entry, looked up, the tested form may be a part): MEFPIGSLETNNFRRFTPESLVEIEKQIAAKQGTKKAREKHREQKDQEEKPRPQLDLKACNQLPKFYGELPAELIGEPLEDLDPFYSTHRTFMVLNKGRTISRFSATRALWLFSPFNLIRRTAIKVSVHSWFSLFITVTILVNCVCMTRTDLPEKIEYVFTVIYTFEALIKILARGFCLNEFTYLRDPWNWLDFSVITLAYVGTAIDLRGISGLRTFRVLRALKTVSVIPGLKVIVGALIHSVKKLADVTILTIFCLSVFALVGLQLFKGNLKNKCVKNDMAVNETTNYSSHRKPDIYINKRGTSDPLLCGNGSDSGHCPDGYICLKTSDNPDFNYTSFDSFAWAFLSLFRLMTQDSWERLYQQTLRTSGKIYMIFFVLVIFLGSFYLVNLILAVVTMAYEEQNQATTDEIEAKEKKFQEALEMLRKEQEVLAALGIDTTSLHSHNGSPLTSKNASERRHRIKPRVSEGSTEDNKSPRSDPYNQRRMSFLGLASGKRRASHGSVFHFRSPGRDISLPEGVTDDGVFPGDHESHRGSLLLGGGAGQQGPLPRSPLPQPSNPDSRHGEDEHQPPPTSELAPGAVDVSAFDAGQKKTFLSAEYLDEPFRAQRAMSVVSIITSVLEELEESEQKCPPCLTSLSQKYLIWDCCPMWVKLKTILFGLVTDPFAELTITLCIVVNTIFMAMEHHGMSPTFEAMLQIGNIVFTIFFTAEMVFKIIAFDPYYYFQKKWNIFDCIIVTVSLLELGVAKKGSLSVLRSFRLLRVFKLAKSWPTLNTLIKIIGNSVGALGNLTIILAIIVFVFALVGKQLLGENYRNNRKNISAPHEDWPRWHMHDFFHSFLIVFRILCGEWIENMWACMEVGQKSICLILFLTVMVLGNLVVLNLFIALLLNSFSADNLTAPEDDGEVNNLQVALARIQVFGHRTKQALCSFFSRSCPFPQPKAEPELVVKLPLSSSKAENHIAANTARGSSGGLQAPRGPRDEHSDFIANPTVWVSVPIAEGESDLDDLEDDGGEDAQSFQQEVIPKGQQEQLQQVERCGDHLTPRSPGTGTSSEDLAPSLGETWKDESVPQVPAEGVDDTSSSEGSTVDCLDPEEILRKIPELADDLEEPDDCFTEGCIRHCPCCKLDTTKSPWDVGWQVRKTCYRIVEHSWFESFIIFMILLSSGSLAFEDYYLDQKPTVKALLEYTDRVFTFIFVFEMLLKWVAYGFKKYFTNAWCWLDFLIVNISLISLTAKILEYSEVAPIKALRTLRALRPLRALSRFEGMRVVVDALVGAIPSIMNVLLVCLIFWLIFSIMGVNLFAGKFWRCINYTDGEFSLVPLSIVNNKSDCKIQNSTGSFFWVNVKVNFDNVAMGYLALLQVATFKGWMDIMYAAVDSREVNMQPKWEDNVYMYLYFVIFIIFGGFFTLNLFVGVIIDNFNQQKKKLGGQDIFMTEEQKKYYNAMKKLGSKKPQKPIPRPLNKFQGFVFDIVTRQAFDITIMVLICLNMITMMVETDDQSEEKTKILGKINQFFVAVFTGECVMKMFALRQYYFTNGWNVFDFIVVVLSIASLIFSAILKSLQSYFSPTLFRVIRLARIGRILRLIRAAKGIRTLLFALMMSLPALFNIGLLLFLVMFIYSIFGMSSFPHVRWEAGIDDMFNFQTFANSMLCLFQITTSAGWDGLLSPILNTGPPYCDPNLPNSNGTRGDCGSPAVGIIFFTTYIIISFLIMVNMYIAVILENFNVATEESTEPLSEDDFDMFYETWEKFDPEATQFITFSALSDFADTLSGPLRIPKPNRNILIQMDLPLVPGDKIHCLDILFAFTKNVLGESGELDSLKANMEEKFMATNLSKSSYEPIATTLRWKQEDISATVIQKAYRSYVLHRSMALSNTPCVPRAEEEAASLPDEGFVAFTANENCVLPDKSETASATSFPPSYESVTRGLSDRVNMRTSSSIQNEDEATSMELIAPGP

The pIC50 is −log10 of the IC50, conventionally taken in molar units. As for `Cc1c([C@@H]2[C@@H](C(=O)Nc3ccnc(C(N)=O)c3)O[C@@](C)(C(F)(F)F)[C@H]2C)ccc(F)c1F` (stereo in doubt) [Compound 134, rel-(2S,3R,4S,5R)-4-[[3-(3,4-difluoro-2-methyl-phenyl)-4,5-dimethyl-5-(trifluoromethyl)tetrahydrofuran-2-carbonyl]amino]pyridine-2-carboxamide], the pIC50 under setting [1] is 6.00 to 7.00. As for `COc1c([C@@H]2[C@@H](C(=O)Nc3ccnc(C(N)=O)c3)OC(C)(C)[C@H]2C)ccc(F)c1F` (single isomer, unassigned) [Compound 104], the pIC50 under setting [2] was below 6.00. On the same count and under the same terms, under `CC[C@H]1[C@@H](c2ccc(F)c(F)c2OC)[C@H](C(=O)Nc2ccnc(C(N)=O)c2)O[C@@]1(C)C(F)(F)F` (racemic) [Compound 116, rac-(2R,3S,4S,5R)-4-[[3-(3,4-difluoro-2-methoxy-phenyl)-4-ethyl-5-methyl-5-(trifluoromethyl)tetrahydrofuran-2-carbonyl]amino]pyridine-2-carboxamide] stands above 8.00.

For the molecule `COc1c([C@@H]2[C@@H](C(=O)Nc3ccnc(C(N)=O)c3)O[C@](C)(C(F)(F)F)[C@@H]2C)ccc(C(F)F)c1F` (single isomer, unassigned) [Compound 135], under setting [1], the pIC50 was below 6.00. Take `COc1cc(F)ccc1[C@H]1[C@H](C(=O)Nc2ccnc(C(N)=O)c2)O[C@](C)(C(F)(F)F)[C@H]1C` (single isomer, unassigned) [Compound 40]: the pIC50 under setting [2] is below 6.00.

Turning to `CCOc1c([C@@H]2[C@@H](C(=O)Nc3ccnc(C(N)=O)c3)O[C@](C)(C(F)(F)F)[C@@H]2C)ccc(F)c1F` [Compound 8, (2S,3R,4R,5S)-4-[[3-(2-ethoxy-3,4-difluoro-phenyl)-4,5-dimethyl-5-(trifluoromethyl)tetrahydrofuran-2-carbonyl]amino]pyridine-2-carboxamide], the pIC50 under setting [2] was below 6.00. Consider `C[C@H]1[C@@H](c2ccc(F)cc2OC(F)F)[C@H](C(=O)Nc2ccnc(C(N)=O)c2)O[C@@]1(C)C(F)(F)F` (stereo in doubt) [Compound 2, rel-(2R,3S,4S,5R)-4-[[3-[2-(difluoromethoxy)-4-fluoro-phenyl]-4,5-dimethyl-5-(trifluoromethyl)tetrahydrofuran-2-carbonyl]amino]pyridine-2-carboxamide], for which the pIC50 under setting [2] is 6.00 to 7.00.

Take `COc1nc(C(F)F)ccc1[C@@H]1[C@@H](C(=O)Nc2ccnc(C(N)=O)c2)O[C@](C)(C(F)(F)F)[C@@H]1C` (stereo in doubt) [Compound 141, rel-(2S,3R,4R,5S)-4-[[3-[6-(difluoromethyl)-2-methoxy-3-pyridyl]-4,5-dimethyl-5-(trifluoromethyl)tetrahydrofuran-2-carbonyl]amino]pyridine-2-carboxamide]: the pIC50 under setting [1] is below 6.00. Turning to `C[C@H]1[C@@H](c2ccc(F)c(F)c2OC2CCC2)[C@H](C(=O)Nc2ccnc(C(N)=O)c2)O[C@@]1(C)C(F)(F)F` [Compound 147, 4-[[(2R,3S,4S,5R)-3-[2-(cyclobutoxy)-3,4-difluoro-phenyl]-4,5-dimethyl-5-(trifluoromethyl)tetrahydrofuran-2-carbonyl]amino]pyridine-2-carboxamide], under setting [1], the pIC50 was above 8.00. `COc1c([C@H]2[C@H](C(=O)Nc3cncc(C(N)=O)n3)O[C@@](C)(C(F)(F)F)[C@H]2C)ccc(F)c1F` [Compound 117, 6-[[(2R,3S,4S,5R)-3-(3,4-difluoro-2-methoxy-phenyl)-4,5-dimethyl-5-(trifluoromethyl)tetrahydrofuran-2-carbonyl]amino]pyrazine-2-carboxamide]: the pIC50 under setting [1] is 7.00 to 8.00. In the case of `COc1c([C@@H]2[C@@H](C(=O)Nc3ccnc(C(N)=O)c3)O[C@](C)(C(F)F)[C@@H]2C)ccc(F)c1F` (stereo in doubt) [Compound 98, rel-(2S,3R,4R,5S)-4-[[3-(3,4-difluoro-2-methoxy-phenyl)-5-(difluoromethyl)-4,5-dimethyl-tetrahydrofuran-2-carbonyl]amino]pyridine-2-carboxamide], the pIC50 under setting [2] is below 6.00. The same measure, in the same setting: for `COc1c([C@@H]2C[C@@](C)(C(F)(F)F)O[C@H]2C(=O)Nc2ccnc(C(N)=O)c2)ccc(F)c1Cl` [Compound 23, (2R,3S,5S)-4-[[3-(3-chloro-4-fluoro-2-methoxy-phenyl)-5-methyl-5-(trifluoromethyl)tetrahydrofuran-2-carbonyl]amino]pyridine-2-carboxamide] the value was 7.00 to 8.00; for `Cc1cnc(C(N)=O)cc1NC(=O)[C@H]1O[C@](C)(C(F)(F)F)[C@H](C)[C@@H]1c1ccc(F)c(F)c1OC(F)F` (stereo in doubt) [Compound 151, rel-(2S,3R,4R,5S)-4-[[3-[2-(difluoromethoxy)-3,4-difluoro-phenyl]-4,5-dimethyl-5-(trifluoromethyl)tetrahydrofuran-2-carbonyl]amino]-5-methyl-pyridine-2-carboxamide], 7.00 to 8.00; for `COc1cc(F)ccc1[C@@H]1C[C@](C)(C(F)(F)F)O[C@H]1C(=O)Nc1ccnc(C(N)=O)c1` (stereo in doubt) [Compound 68, rel-(2R,3S,5R)-4-[[3-(4-fluoro-2-methoxy-phenyl)-5-methyl-5-(trifluoromethyl)tetrahydrofuran-2-carbonyl]amino]pyridine-2-carboxamide], 7.00 to 8.00.

In the case of `C[C@]1(C(F)(F)F)C[C@@H](c2ccc(F)cc2OC(F)F)[C@H](C(=O)Nc2ccnc(C(N)=O)c2)O1` [compound 74], under setting [2], the pIC50 was 7.00 to 8.00. The same measure, in the same setting: under `CC[C@@H]1[C@H](c2ccc(F)c(F)c2OC)[C@@H](C(=O)Nc2ccnc(C(N)=O)c2)O[C@]1(C)C(F)(F)F` (single isomer, unassigned) [Compound 92] stands below 6.00; under `COc1c([C@H]2C[C@](C)(C(F)(F)F)O[C@@H]2C(=O)Nc2ccnc(C(N)=O)c2)ccc(F)c1Cl` [Compound 21, (2S,3R,5R)-4-[[3-(3-chloro-4-fluoro-2-methoxy-phenyl)-5-methyl-5-(trifluoromethyl)tetrahydrofuran-2-carbonyl]amino]pyridine-2-carboxamide], below 6.00; under `Cc1c(F)ccc([C@@H]2C[C@](C)(C(F)(F)F)O[C@H]2C(=O)Nc2ccnc(C(N)=O)c2)c1F` (single isomer, unassigned) [Compound 76], 6.00 to 7.00. Regarding `COc1c([C@H]2C[C@@](C)(C(F)(F)F)O[C@@H]2C(=O)Nc2ccnc(C(N)=O)c2)ccc(F)c1C` (single isomer, unassigned) [Compound 71], under setting [2], the pIC50 was below 6.00. On the same count and under the same terms, for `CNC(=O)c1cc(NC(=O)[C@@H]2O[C@](C)(C(F)(F)F)C[C@H]2c2ccc(F)c(Cl)c2OC)ccn1` (single isomer, unassigned) [Compound 59] the value was below 6.00; for `COc1c([C@@H]2[C@@H](C(=O)Nc3ccnc(C(N)=O)c3)O[C@](C)(C(F)(F)F)[C@@H]2C2CC2)ccc(F)c1F` (single isomer, unassigned) [Compound 94], above 8.00.

As to `COc1c([C@@H]2[C@H](C)[C@H](C(F)(F)F)O[C@H]2C(=O)Nc2ccnc(C(N)=O)c2)ccc(F)c1F` (relative stereo) [Compound 25, rel-(2S,3R,4R,5S)-4-[[3-(3,4-difluoro-2-methoxy-phenyl)-4-methyl-5-(trifluoromethyl)tetrahydrofuran-2-carbonyl]amino]pyridine-2-carboxamide], under setting [2], the pIC50 was above 8.00.
